# Source: patent US9249145B2, “Heterocyclic derivatives of pyrazol-4-yl-pyrrolo[2,3-d]pyrimidines as janus kinase inhibitors” (Incyte Holdings Corporation, priority 2009, dated 2016)
# What was measured:
# [1] = biological target: T1, human JAK1 (a.a. 837-1142) (Homo sapiens, UniProt P23458); assay: In vitro JAK kinase assay (HTRF, phosphorylation of biotinylated peptide), JAK1; format: biochemical; conditions: 1 mM ATP; Examples 92-162; read-out: JAK1 IC50 (nM) @ 1 mM ATP
# T1 construct: The catalytic domains of human JAK1 (a.a. 837-1142); His tag (N); made in house; host or cells: insect cells (baculovirus)
# Outline: (§1)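 His-tagged catalytic domains expressed in baculovirus/insect cells; biotinylated peptide (500 nM) phosphorylation in 50 mM Tris pH 7.8, 100 mM NaCl, 5 mM DTT, 0.01% BSA, 1 h room temperature. ATP at Km (JAK1 90 μM, JAK2 30 μM) or 1 mM. EDTA stop, Eu-Py20/SA-APC HTRF read; IC50.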
# [2] = biological target: T2, Jak2 (a.a. 828-1132) (Homo sapiens, UniProt O60674); assay: In vitro JAK kinase assay (HTRF, phosphorylation of biotinylated peptide), JAK2; format: biochemical; conditions: 1 mM ATP; Examples 92-162; read-out: JAK2 IC50 (nM) @ 1 mM ATP
# T2 construct: Jak2 (a.a. 828-1132); His tag (N); made in house; host or cells: insect cells (baculovirus)
# Outline: as §1
# T2 sequence (O60674 828-1132): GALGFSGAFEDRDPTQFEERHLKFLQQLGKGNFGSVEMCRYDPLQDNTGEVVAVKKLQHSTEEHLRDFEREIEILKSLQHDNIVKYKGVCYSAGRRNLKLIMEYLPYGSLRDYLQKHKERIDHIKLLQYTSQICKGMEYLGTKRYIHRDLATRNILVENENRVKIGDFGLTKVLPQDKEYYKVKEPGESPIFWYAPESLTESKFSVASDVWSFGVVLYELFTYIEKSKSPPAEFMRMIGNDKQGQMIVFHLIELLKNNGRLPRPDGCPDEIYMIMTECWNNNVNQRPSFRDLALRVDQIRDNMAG
# T1 sequence (P23458 849-1154): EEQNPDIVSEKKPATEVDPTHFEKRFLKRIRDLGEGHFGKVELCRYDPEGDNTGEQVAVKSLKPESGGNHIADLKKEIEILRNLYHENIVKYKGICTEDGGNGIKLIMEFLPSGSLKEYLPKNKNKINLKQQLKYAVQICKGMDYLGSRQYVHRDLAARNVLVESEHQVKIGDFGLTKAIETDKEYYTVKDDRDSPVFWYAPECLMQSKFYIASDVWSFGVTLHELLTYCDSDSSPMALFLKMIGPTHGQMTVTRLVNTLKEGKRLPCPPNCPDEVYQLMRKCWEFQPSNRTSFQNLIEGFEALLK
SMILES,IC50 [1] [nM],IC50 [2] [nM]
"CC(CN1CCN(S(=O)(=O)c2cccc(F)c2)CC1)n1cc(-c2ncnc3[nH]ccc23)cn1 (stereo not shown) [Example 96, 4-[1-(2-{4-[(3-fluorophenyl)sulfonyl]piperazin-1-yl}-1-methylethyl)-1H-pyrazol-4-yl]-7H-pyrrolo[2,3-d]pyrimidine bis(trifluoroacetate)]",20 to 50,> 100
"N#CCC(CN1CCCN(C(=O)c2ccc(O)cc2F)CC1)n1cc(-c2ncnc3[nH]ccc23)cn1 (stereo not shown) [Example 97, 4-[4-(2-fluoro-4-hydroxybenzoyl)-1,4-diazepan-1-yl]-3-[4-(7H-pyrrolo[2,3-d]pyrimidin-4-yl)-1H-pyrazol-1-yl]butanenitrile bis(trifluoroacetate)]",20 to 50,> 100
"N#CCC(CN1CCCN(C(=O)c2ccc(F)cc2)CC1)n1cc(-c2ncnc3[nH]ccc23)cn1 (stereo not shown) [Example 98, 4-[4-(4-fluorobenzoyl)-1,4-diazepan-1-yl]-3-[4-(7H-pyrrolo[2,3-d]pyrimidin-4-yl)-1H-pyrazol-1-yl]butanenitrile]",20 to 50,> 100
"N#CCC(CN1CCCN(C(=O)c2ccc(F)cc2F)CC1)n1cc(-c2ncnc3[nH]ccc23)cn1 (stereo not shown) [Example 99, 4-[4-(2,4-difluorobenzoyl)-1,4-diazepan-1-yl]-3-[4-(7H-pyrrolo[2,3-d]pyrimidin-4-yl)-1H-pyrazol-1-yl]butanenitrile]",20 to 50,50 to 100
"N#CCC(CN1CCCN(C(=O)c2ccc(Cl)cc2F)CC1)n1cc(-c2ncnc3[nH]ccc23)cn1 (stereo not shown) [Example 100, 4-[4-(4-chloro-2-fluorobenzoyl)-1,4-diazepan-1-yl]-3-[4-(7H-pyrrolo[2,3-d]pyrimidin-4-yl)-1H-pyrazol-1-yl]butanenitrile]",< 20,20 to 50
"N#CCC(CN1CCCN(C(=O)c2ccccc2F)CC1)n1cc(-c2ncnc3[nH]ccc23)cn1 (stereo not shown) [Example 101, 4-[4-(2-fluorobenzoyl)-1,4-diazepan-1-yl]-3-[4-(7H-pyrrolo[2,3-d]pyrimidin-4-yl)-1H-pyrazol-1-yl]butanenitrile]",20 to 50,> 100
"N#CCC(CN1CCCN(S(=O)(=O)c2ccccc2C#N)CC1)n1cc(-c2ncnc3[nH]ccc23)cn1 (stereo not shown) [Example 102, 2-[(4-{3-cyano-2-[4-(7H-pyrrolo[2,3-d]pyrimidin-4-yl)-1H-pyrazol-1-yl]propyl}-1,4-diazepan-1-yl)sulfonyl]benzonitrile]",20 to 50,50 to 100

# The next lines start with the values.
IC50 [1] [nM],IC50 [2] [nM],SMILES
20 to 50,> 100,"N#CCC(CN1CCCN(C(=O)c2ccc(Cl)cc2Cl)CC1)n1cc(-c2ncnc3[nH]ccc23)cn1 (stereo not shown) [Example 103, 4-[4-(2,4-dichlorobenzoyl)-1,4-diazepan-1-yl]-3-[4-(7H-pyrrolo[2,3-d]pyrimidin-4-yl)-1H-pyrazol-1-yl]butanenitrile]"
20 to 50,> 100,"N#CCC(CN1CCCN(C(=O)c2ccc(N)cc2F)CC1)n1cc(-c2ncnc3[nH]ccc23)cn1 (stereo not shown) [Example 104, 4-[4-(4-amino-2-fluorobenzoyl)-1,4-diazepan-1-yl]-3-[4-(7H-pyrrolo[2,3-d]pyrimidin-4-yl)-1H-pyrazol-1-yl]butanenitrile]"
20 to 50,> 100,"Cc1cc(Cl)ccc1C(=O)N1CCCN(CC(CC#N)n2cc(-c3ncnc4[nH]ccc34)cn2)CC1 (stereo not shown) [Example 105, 4-[4-(4-chloro-2-methylbenzoyl)-1,4-diazepan-1-yl]-3-[4-(7H-pyrrolo[2,3-d]pyrimidin-4-yl)-1H-pyrazol-1-yl]butanenitrile]"
< 20,50 to 100,"COc1cc(Cl)ccc1C(=O)N1CCCN(CC(CC#N)n2cc(-c3ncnc4[nH]ccc34)cn2)CC1 (stereo not shown) [Example 106, 4-[4-(4-chloro-2-methoxybenzoyl)-1,4-diazepan-1-yl]-3-[4-(7H-pyrrolo[2,3-d]pyrimidin-4-yl)-1H-pyrazol-1-yl]butanenitrile]"
